Laboratory results from patent US7947689B2, “Substituted pyrazolo[1,5-a]pyrimidines as metabotropic glutamate receptor modulators” (Merz Pharma GmbH & Co. KGaA, priority 2006, dated 2011).

How the values were obtained:
mGluR5 receptors = molecular target: T1, mGluR5 receptors (Rattus norvegicus, UniProt P31424); assay: Cytosolic calcium studies with astrocytes (astrocyte culture test, FLIPR); type: cell-based; conditions: rat primary astrocytes; L-quisqualate 100 nM; read-out: mGluR5_FLIPR_r_rpA— IC50
T1 construct: endogenous in cells; host or cells: primary astrocytes from neocortex of Sprague-Dawley rat pups (2-4 d old)
T1 sequence (P31424 21-1203): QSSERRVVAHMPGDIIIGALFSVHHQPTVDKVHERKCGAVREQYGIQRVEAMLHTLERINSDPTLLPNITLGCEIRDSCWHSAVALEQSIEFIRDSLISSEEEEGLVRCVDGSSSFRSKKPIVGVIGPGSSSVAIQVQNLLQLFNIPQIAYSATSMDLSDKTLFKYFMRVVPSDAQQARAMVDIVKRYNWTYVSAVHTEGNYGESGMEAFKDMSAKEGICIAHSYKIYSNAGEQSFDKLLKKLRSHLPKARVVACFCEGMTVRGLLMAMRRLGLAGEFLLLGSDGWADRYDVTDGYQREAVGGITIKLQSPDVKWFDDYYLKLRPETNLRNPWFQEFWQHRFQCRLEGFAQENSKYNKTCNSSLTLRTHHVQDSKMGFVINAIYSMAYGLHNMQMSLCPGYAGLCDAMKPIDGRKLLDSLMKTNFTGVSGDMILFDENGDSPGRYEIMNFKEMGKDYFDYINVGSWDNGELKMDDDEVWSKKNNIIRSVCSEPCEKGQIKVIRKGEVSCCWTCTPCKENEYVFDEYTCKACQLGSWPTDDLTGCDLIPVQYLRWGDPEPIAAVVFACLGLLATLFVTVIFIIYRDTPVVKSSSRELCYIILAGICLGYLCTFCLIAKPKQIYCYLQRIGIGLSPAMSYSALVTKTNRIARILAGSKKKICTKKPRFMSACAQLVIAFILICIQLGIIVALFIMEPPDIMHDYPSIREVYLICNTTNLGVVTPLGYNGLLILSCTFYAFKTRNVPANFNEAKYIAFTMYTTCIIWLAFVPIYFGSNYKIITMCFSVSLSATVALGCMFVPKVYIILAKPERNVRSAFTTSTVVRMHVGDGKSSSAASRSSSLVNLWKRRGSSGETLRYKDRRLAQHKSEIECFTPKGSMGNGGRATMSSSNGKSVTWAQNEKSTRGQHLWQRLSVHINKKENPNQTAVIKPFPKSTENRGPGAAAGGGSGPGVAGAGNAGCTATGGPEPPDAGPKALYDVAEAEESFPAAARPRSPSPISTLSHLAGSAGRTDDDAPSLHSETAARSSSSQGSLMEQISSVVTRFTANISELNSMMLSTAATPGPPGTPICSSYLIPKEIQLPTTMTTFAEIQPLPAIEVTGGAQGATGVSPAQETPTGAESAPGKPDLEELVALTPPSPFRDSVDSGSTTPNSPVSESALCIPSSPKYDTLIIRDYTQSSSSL
Experimental: Primary astrocyte cultures are prepared from cortices of newborn rats as described by Booher and Sensenbrenner (1972, Neurobiology 2(3):97-105). Briefly, Sprague-Dawley rat pups (2-4 d old) are decapitated and neocortices are dissected, disintegrated with a nylon filter (pore size 80 μm) and carefully triturated. The cell suspension is plated on poly-D-lysine pre-coated flasks (Costar, Netherlands) and cultivated in Dulbecco's Modified Eagle's Medium (DMEM, Invitrogen, Germany) supplemented with 10% foetal calf serum (FCS, Sigma, Germany), 4 mM glutamine and 50 μg/ml gentamycin (both Biochrom, Germany) at 37° C. in a humidified atmosphere of 5% CO2/95% air for 7 d with exchanging the medium at day 2 and 6.
After 7 days in vitro (DIV), cells are shaken overnight at 250 rpm to remove oligodendrocytes and microglia. The next day, astrocytes are rinsed twice with CMF-PBS (calcium- and magnesium-free phosphate buffered saline, Biochrom, Germany), trypsinized and subplated on poly-D-lysine pre-coated 96-well plates (Greiner, Germany) at a density of 40,000 cells/well. 24 h after establishing the secondary culture the astrocytes are rinsed with PBS^++ (phosphate buffered saline, Biochrom, Germany) and fed with astrocyte-defined medium (ADM) consisting of DMEM containing 1×G5-supplement (Invitrogen, Germany), 0.5 μg/ml heparan sulfate, and 1.5 μg/ml fibronectin (both Sigma, Germany) (Miller et al., (1993) Brain Res. 618(1):175-8). 3 d later the medium is exchanged and the cells incubated for another 2-3 d, so that at the time of experiments astrocytes are 14-15 DIV.
Cytosolic Calcium Studies with Astrocytes:
The increase of cytosolic calcium after stimulation with the mGluR5 agonist L-quisqualate is measured using a fluorometric imaging plate reader (FLIPR) and the Ca-Kit (both Molecular Devices). Prior to addition of agonist or antagonist the medium is aspirated and cells are loaded for 2 h at RT with 150 μl of loading buffer consisting of Ca-sensitive dye reconstituted in sodium chloride (123 mM), potassium chloride (5.4 mM), magnesium chloride (0.8 mM), calcium chloride (1.8 mM), D-glucose (15 mM), and HEPES (20 mM), pH 7.3. Subsequently, plates are transferred to FLIPR to detect calcium increase with the addition of L-quisqualate (100 nM) measured as relative fluorescence units (RFU). If antagonists are tested, these compounds are pre-incubated for 10 minutes at RT before addition of the respective agonist.
(§1) The fluorescence signal increase after addition of agonist reflects the increase of cytosolic calcium. Inconsistencies in the amount of cells per well are normalised by using the spatial uniformity correction of the FLIPR software. The mean of replicated temporal data (n=3-5) is calculated and used for graphical representation. For the evaluation of the pharmacology, the calcium changes in response to different concentrations of agonist or antagonist are determined using a maximum minus minimum (MaxMin) calculation.
(§2) All responses (RFU-values) are determined as percentage of control (=maximum response). EC50 and IC50 are calculated according the logistic equation using GraFit 5.0 (Erithacus Software, GB) or Prism 4.0 (GraphPad Software, USA).

[1] = molecular target: T2, transmembrane allosteric modulatory sites of mGluR5 receptors (Rattus norvegicus, UniProt P31424); assay: [3H]-MPEP binding assay in rat cortical membranes; conditions: displacement of radioligand, read-out: mGluR5_M_MPEP_r_CTX IC50
T2 construct: from tissue; host or cells: cortex of male Sprague-Dawley rats, membrane preparation
T2 sequence (P31424 21-1203): as above
Experimental: Binding Assays for the Characterization of mGluR5 Antagonists
Preparation of Rat Cortical Membranes:
Male Sprague-Dawley rats (200-250 g) are decapitated and their brains are removed rapidly. The cortex is dissected and homogenized in 20 volumes of ice-cold 0.32 M sucrose using a glass-Teflon homogenizer. The homogenate is centrifuged at 1000×g for 10 minutes. The pellet is discarded and the supernatant centrifuged at 20,000×g for 20 minutes. The resulting pellet is re-suspended in 20 volumes of distilled water and centrifuged for 20 minutes at 8000×g. Then the supernatant and the buffy coat are centrifuged at 48,000×g for 20 minutes in the presence of 50 mM Tris-HCl, pH 8.0. The pellet is then re-suspended and centrifuged two to three more times at 48,000×g for 20 minutes in the presence of 50 mM Tris-HCl, pH 8.0. All centrifugation steps are carried out at 4° C. After resuspension in 5 volumes of 50 mM Tris-HCl, pH 8.0 the membrane suspension is frozen rapidly at −80° C.
On the day of assay the membranes are thawed and washed four times by resuspension in 50 mM Tris-HCl, pH 8.0 and centrifugation at 48,000×g for 20 minutes and finally re-suspended in 50 mM Tris-HCl, pH 7.4. The amount of protein in the final membrane preparation (500-700 μg/ml) is determined according to the method of Lowry (Lowry O. H. et al. 1951. J. Biol. Chem. 193, 256-275).
The incubations are continued at room temperature for 60 minutes (equilibrium is achieved under the conditions used). […] Incubations are terminated using a Millipore filter system. The samples are rinsed twice with 4 ml of ice-cold assay buffer over glass fibre filters (Schleicher & Schuell, Germany) under a constant vacuum. Following separation and rinse, the filters are placed into scintillation liquid (5 ml Ultima Gold, Perkin Elmer, Germany) and radioactivity retained on the filters is determined with a conventional liquid scintillation counter (Can berra Packard, Germany).

[2] = molecular target: T3, metabotropic glutamate receptor (mGluR5) (Homo sapiens, UniProt P41594); assay: Cytosolic calcium studies with stably transfected cells (FLIPR, CHO-K1); type: cell-based; design: expressed in transfected cells; host or cells: CHO-K1 cells (IPTG-inducible expression); conditions: CHO-K1 cells expressing human mGluR5; agonist L-quisqualic acid at 80% of maximal signal; negative modulation; read-out: mGluR5_FLIPR_h_CHO_NAM— IC50
T3 sequence (P41594 21-1212): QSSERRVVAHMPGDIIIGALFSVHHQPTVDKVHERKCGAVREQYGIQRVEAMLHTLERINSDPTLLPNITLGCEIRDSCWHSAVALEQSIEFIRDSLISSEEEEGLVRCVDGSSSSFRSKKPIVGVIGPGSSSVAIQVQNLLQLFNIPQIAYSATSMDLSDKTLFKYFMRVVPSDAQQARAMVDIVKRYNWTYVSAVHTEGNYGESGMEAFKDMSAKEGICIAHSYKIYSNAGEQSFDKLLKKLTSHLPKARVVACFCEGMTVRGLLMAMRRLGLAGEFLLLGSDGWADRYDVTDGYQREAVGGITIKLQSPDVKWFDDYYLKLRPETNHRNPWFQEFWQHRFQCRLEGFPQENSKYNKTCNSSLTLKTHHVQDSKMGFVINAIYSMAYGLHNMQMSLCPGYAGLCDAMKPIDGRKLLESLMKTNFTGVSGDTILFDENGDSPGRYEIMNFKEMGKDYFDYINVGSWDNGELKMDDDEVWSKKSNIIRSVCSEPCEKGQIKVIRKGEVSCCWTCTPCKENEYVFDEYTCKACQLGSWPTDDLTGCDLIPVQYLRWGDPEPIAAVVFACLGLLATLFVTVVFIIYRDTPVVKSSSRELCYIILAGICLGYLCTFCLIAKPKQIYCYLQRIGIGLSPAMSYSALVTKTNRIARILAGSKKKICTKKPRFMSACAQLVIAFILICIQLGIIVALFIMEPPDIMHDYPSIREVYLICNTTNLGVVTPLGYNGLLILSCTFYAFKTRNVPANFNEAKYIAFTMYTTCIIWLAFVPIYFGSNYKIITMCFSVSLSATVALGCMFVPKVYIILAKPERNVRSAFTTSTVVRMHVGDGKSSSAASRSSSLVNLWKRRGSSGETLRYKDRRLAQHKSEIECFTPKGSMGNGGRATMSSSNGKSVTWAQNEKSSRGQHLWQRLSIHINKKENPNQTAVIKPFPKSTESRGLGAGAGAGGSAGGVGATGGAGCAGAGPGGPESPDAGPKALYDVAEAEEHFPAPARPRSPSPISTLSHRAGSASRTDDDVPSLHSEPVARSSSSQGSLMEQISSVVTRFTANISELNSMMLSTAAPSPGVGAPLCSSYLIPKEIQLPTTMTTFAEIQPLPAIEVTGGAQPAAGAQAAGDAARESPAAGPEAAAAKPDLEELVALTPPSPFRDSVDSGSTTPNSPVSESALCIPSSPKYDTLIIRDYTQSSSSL
Experimental: Cytosolic Calcium Studies with Stably Transfected Cells:
Chinese hamster ovary cells (CHO-K1 cells), stably transfected for inducible expression of a human metabotropic glutamate receptor mGluR5, are seeded into black clear bottom 96 well plates at a density of 35.000 cells per well. The standard growth medium used (Dulbecco's modified Eagle Medium, DMEM plus L-proline) contains the appropriate inducer isopropyl-β-D-thiogalactopyranosid (IPTG) to achieve optimal receptor expression. One day after seeding the growth medium is exchanged for reconstituted Ca-Kit (Molecular Devices, USA) and incubated for one hour. Ca-Kit is reconstituted in an assay buffer containing 20 mM HEPES pH 7.4, glutamic-pyruvate transaminase, pyridoxal phosphate and sodium pyruvate in Hank's balanced salt solution (HBBS). Agonistic compounds to the receptor elicit increases in cytosolic calcium which can be measured as increases in fluorescence signals by use of a fluorescence imaging plate reader (Molecular Devices).
as §1, §2

[3] = molecular target: T3, metabotropic glutamate receptor (mGluR5); assay: Activity as mGluR5 modulator (test not specified); conditions: for activity as metabotropic glutamate receptor (mGluR5) modulator: prior-art compounds

**Q.** Which IC50 (mGluR5 receptors) does the source give for `CC1c2ccsc2CCN1C(=O)c1cc2ncc(Br)cn2n1` (stereo not shown) [Example 1, 6-Bromo-2-[(4-methyl-6,7-dihydrothieno[3,2-c]pyridin-5(4H)-yl)carbonyl]pyrazolo[1,5-a]pyrimidine] here?
**A.** 23 nM

**Q.** What about the IC50 [1] of the same compound?
**A.** 80 nM

**Q.** And the IC50 [2]?
**A.** 80.7 nM

**Q.** With `CC1c2ccsc2CCN1C(=O)c1cc2ncc(Cl)cn2n1` (stereo not shown) [Example 2, (6-Chloro-pyrazolo[1,5-a]pyrimidin-2-yl)-(4-methyl-6,7-dihydro-4H-thieno[3,2-c]pyridin-5-yl)-methanone] as the compound, how does the IC50 (mGluR5 receptors) read?
**A.** 24 nM

**Q.** What about the IC50 [1] of the same compound?
**A.** 55 nM

**Q.** What about the IC50 [2] of the same compound?
**A.** 44 nM

**Q.** For `CCC1c2ccsc2CCN1C(=O)c1cc2ncc(Br)cn2n1` (stereo not shown) [Example 9, (6-Bromo-pyrazolo[1,5-a]pyrimidin-2-yl)-(4-ethyl-6,7-dihydro-4H-thieno[3,2-c]pyridin-5-yl)-methanone], which IC50 (mGluR5 receptors) is on record?
**A.** 21 nM

**Q.** And the IC50 [1]?
**A.** 117 nM

**Q.** And the IC50 [2]?
**A.** 63.6 nM

**Q.** Which results are given for `CCC1c2ccsc2CCN1C(=O)c1cc2ncc(Cl)cn2n1` (stereo not shown) [Example 10, (6-Chloro-pyrazolo[1,5-a]pyrimidin-2-yl)-(4-ethyl-6,7-dihydro-4H-thieno[3,2-c]pyridin-5-yl)-methanone]?
**A.** IC50 (mGluR5 receptors): 21 nM; IC50 [1]: 150 nM; IC50 [2]: 82 nM

**Q.** Which IC50 (mGluR5 receptors) does the source give for `Cc1cc2c(s1)CCN(C(=O)c1cc3ncc(Br)cn3n1)C2C` (stereo not shown) [Example 15, (6-Bromo-pyrazolo[1,5-a]pyrimidin-2-yl)-(2,4-dimethyl-6,7-dihydro-4H-thieno[3,2-c]pyridin-5-yl)-methanone] here?
**A.** 22.8 nM

**Q.** And the IC50 [1]?
**A.** 12 nM

**Q.** What about the IC50 [2] of the same compound?
**A.** 104 nM

**Q.** With `Cc1cc2c(s1)CCN(C(=O)c1cc3ncc(Cl)cn3n1)C2C` (stereo not shown) [Example 16, (6-Chloro-pyrazolo[1,5-a]pyrimidin-2-yl)-(2,4-dimethyl-6,7-dihydro-4H-thieno[3,2-c]pyridin-5-yl)-methanone] as the compound, how does the IC50 (mGluR5 receptors) read?
**A.** 21 nM

**Q.** And the IC50 [1]?
**A.** 20 nM

**Q.** And the IC50 [2]?
**A.** 92.9 nM

**Q.** What does the source list for `CC1c2ccoc2CCN1C(=O)c1cc2ncc(Br)cn2n1` (stereo not shown) [Example 28, 6-Bromo-2-[(4-methyl-6,7-dihydrofuro[3,2-c]pyridin-5(4H)-yl)carbonyl]pyrazolo[1,5-a]pyrimidine]?
**A.** IC50 (mGluR5 receptors): 80.5 nM; IC50 [1]: 214 nM; IC50 [2]: 107 nM

**Q.** Which IC50 (mGluR5 receptors) does the source give for `CC1c2ccoc2CCN1C(=O)c1cc2ncc(Cl)cn2n1` (stereo not shown) [Example 29, 6-Chloro-2-[(4-methyl-6,7-dihydrofuro[3,2-c]pyridin-5(4H)-yl)carbonyl]pyrazolo[1,5-a]pyrimidine] here?
**A.** 64 nM

**Q.** What about the IC50 [1] of the same compound?
**A.** 110 nM

**Q.** What about the IC50 [2] of the same compound?
**A.** 206 nM

**Q.** Which melting point does the source give for `C[C@H]1c2ccsc2CCN1C(=O)c1cc2ncc(Br)cn2n1` [Example 41, (6-Bromo-pyrazolo[1,5-a]pyrimidin-2-yl)-(4-methyl-6,7-dihydro-4H-thieno[3,2-c]pyridin-5-yl)-methanone] here?
**A.** 136 to 137 °C

**Q.** And the IC50 [2]?
**A.** 4420 nM

**Q.** For `C[C@@H]1c2ccsc2CCN1C(=O)c1cc2ncc(Br)cn2n1` [Example 42, (6-Bromo-pyrazolo[1,5-a]pyrimidin-2-yl)-(4-methyl-6,7-dihydro-4H-thieno[3,2-c]pyridin-5-yl)-methanone], which IC50 (mGluR5 receptors) is on record?
**A.** 20 nM

**Q.** What about the IC50 [1] of the same compound?
**A.** 10 nM

**Q.** And the melting point?
**A.** 142 to 144 °C

**Q.** And the IC50 [2]?
**A.** 23.4 nM

**Q.** Which results are given for `Cc1cc2c(o1)CCN(C(=O)c1cc3ncc(Br)cn3n1)C2C` (stereo not shown) [Example 44, (6-Bromo-pyrazolo[1,5-a]pyrimidin-2-yl)-(2,4-dimethyl-6,7-dihydro-4H-furo[3,2-c]pyridin-5-yl)-methanone]?
**A.** IC50 (mGluR5 receptors): 36 nM; IC50 [1]: 17 nM; IC50 [2]: 147 nM

**Q.** With `O=C(c1cc2ncc(Br)cn2n1)N1CCCCC1` [Example B308, (6-Bromopyrazolo[1,5-a]pyrimidin-2-yl)-piperidin-1-yl-methanone] as the compound, how does the “activity as metabotropic glutamate receptor (mGluR5) modulator” value [3] read?
**A.** no particular activity

**Q.** Which “activity as metabotropic glutamate receptor (mGluR5) modulator” value [3] does the source give for `O=C(c1cc2ncc(Br)cn2n1)N1CCOCC1` [Example B310, (6-Bromopyrazolo[1,5-a]pyrimidin-2-yl)-morpholin-4-yl-methanone] here?
**A.** no particular activity

**Q.** Which results are given for `O=C(c1cc2ncc(Br)cn2n1)N1CCc2ccccc2C1` [M, (6-Bromo-pyrazolo[1,5-a]pyrimidin-2-yl)-(1,2,3,4-tetrahydro-isoquinolin-2-yl)-methanon]?
**A.** selectivity ([3]; prior-art compound): not selective; activity as metabotropic glutamate receptor (mGluR5) modulator [3]: only a limited activity
